Experimental data reported in patent US12090164B2, “Genotype-agnostic rescue of cystic fibrosis with small molecule bicarbonate channels” (The Board of Trustees of the University of Illinois, priority 2017, dated 2024).
“Also recorded” adds a separate entry of the source.

Key:
[1] = test system: NuLi (CFTR^+/+) epithelia; assay: ASL pH in non-CF cultured airway epithelia; type: cell-based, human; conditions: apical AmB 2 μM, 48 h
Procedure: (§1) Small diameter NuLi, CuFi, and primary cultured epithelia were used for this experiment (0.33 cm^2). The ratiometric pH indicator SNARF-conjugated dextran (Molecular Probes) was used to measure ASL pH. SNARF powder was suspended via sonication in perfluorocarbon (FC-72, Sigma) and distributed onto the apical surface. ASL pH was measured 2 hr later (3, 4, 25). SNARF was excited at 488 nm and emission was recorded at 580 nm and 640 nm using a Zeiss LSM 800 microscope at 40× water immersion for cell line cultures and a Zeiss LSM 510 microscope for primary cultures. To generate a standard curve for pH determination, SNARF was dissolved in colorless pH standards and fluorescence ratios were converted to pH.
(§2) Agents tested in this assay were first lyophilized into powder and then suspended in the appropriate volume of perfluorocarbon (FC-72, Sigma) and sonicated for 1 minute to suspend. AmBisome should not be sonicated; instead, the fine powder was suspended by vortexing.
(§3) In all experiments, ASL pH of compound-treated epithelia was measured compared the results to vehicle-treated epithelia.
For apical AmB administration, cultured airway epithelia were incubated for 30 min-48 hrs at 37° C. before measurement of ASL pH. For AmB-cholesterol complex and C35deOAmB administration, cultured airway epithelia were incubated for 48 hrs at 37° C. before measurement of ASL pH. […]

[2] = test system: primary cultured airway epithelia derived from humans with CF; assay: ASL pH in primary cultured airway epithelia from CF donors; type: cell-based, human
Procedure: Airway epithelial cells were obtained from human trachea and bronchi of CF and non-CF specimens obtained from the Iowa Donor Network, either as post-mortem specimens or from tissue deemed not fit for transplant. Studies were approved by the University of Iowa Institutional Review Board. After pronase enzymatic digestion, cells were seeded onto collagen-coated semi-permeable membranes (0.33-1.12 cm^2, Corning 3470 polyester, 3460 polyester, 3413 polycarbonate) and grown at an air-liquid interface (52). Airway epithelial cell cultures were analyzed after they had differentiated and at least 14 days post-seeding.
as §1, §2, §3
For apical AmB administration, cultured airway epithelia were incubated for 30 min-48 hrs at 37° C. before measurement of ASL pH. For AmB-cholesterol complex and C35deOAmB administration, cultured airway epithelia were incubated for 48 hrs at 37° C. before measurement of ASL pH. To test the effect of […] ATPase inhibition, AmB was administered 47 hours prior to 10 mM ouabain addition, and cultured airway epithelia were incubated for an additional 1 hr at 37° C. before measurement of ASL pH. For 10 μM ivacaftor/10 μM forskolin administration, cultured airway epithelia were incubated for 2 hrs at 37° C. before measurement of ASL pH (25). For basolateral AmB administration, a 2 mM stock of AmB in DMSO was diluted 1000-fold to a final concentration of 2 μM in USG media. The basolateral media of cultured airway epithelia was replaced with the AmB-containing USG media and incubated for 48 hrs at 37° C. before measurement of ASL pH.

[3] = test system: primary cultured human CF epithelia; assay: ASL viscosity (FITC-dextran FRAP); type: cell-based; conditions: AmB 2 μM, 48 h
Procedure: ASL viscosity in airway epithelial cultures was determined (7, 25). Small diameter primary cultured epithelia were used for this experiment (0.33 cm^2). The apical surface was not washed for at least 2 weeks before study. Cultured epithelia were treated with 2 µM AmB administered in perfluorocarbon (FC-72, Sigma) for 48 hours. FITC-dextran (70 kD, Sigma) was then administered to the apical surface of epithelia as a dry powder 2 hrs before measurement of viscosity. FRAP was assayed in a humidified chamber at 37° C. using a Zeiss LSM 510 μMETA microscope. Images were acquired until maximal recovery was reached. At least 6 recovery curves from different locations in each culture were acquired and averaged to obtain data for one epithelial culture. The time constant […] was calculated by regression analysis from fluorescence recovery curves. Viscosity is expressed relative to the time constant of saline (τASL/τsaline).

[4] = test system: Staphylococcus aureus; assay: Direct killing of S. aureus by AmB alone; type: cell-based; conditions: AmB 2 μM alone vs saline
Procedure: Staphylococcus aureus-coated gold grids were used to measure antibacterial activity of airway epithelial cultures (3, 4). Small diameter primary cultured epithelia were used for this experiment (0.33 cm^2). Bacteria-coated gold TEM grids were placed onto the apical surface of airway epithelia for 1 min after 48 hours of perfluorocarbon (FC-72, Sigma), 2 μM AmB, or 2 μM C35deOAmB treatment. As controls, bacteria-coated grids were also placed in saline or AmB in FC-72 laid over saline to simulate the administration method for 1 minute. After removal, bacteria on the grids were assessed for viability using Live/Dead BacLight Bacterial Viability assay (Invitrogen). Viability was determined in 4-6 fields to determine the percentages of dead bacteria.

[5] = test system: CuFi-1 epithelia; assay: Transepithelial electrical resistance (Rt); type: cell-based, human; conditions: vehicle, 2 uM or 50 uM AmB, extended timeframes
Procedure: Small diameter CuFi-1 cultured epithelia were used for this experiment (0.33 cm^2) Cultured epithelia were treated with FC-72 vehicle, 2 and 50 μM AmB administered in perfluorocarbon (FC-72, Sigma) for 48 hours, 7 days, or 28 days. 200 μL of fresh USG media was placed on the apical side of the epithelia. Transepithelial electrical resistance (Rt) was then measured using a Millicell® ERS-2 Voltohmmeter across the apical and basolateral sides of the epithelia in a snaking pattern for two technical replicates per biological replicate.

[6] = test system: CuFi-1 epithelia; assay: Lactate dehydrogenase (LDH) cytotoxicity assay; type: cell-based, human; conditions: single AmB treatment, increasing time periods
Procedure: Small diameter CuFi-1 cultured epithelia were used for this experiment (0.33 cm^2). An LDH Cytotoxicity Assay Kit (Cayman Chemical) was used to determine if AmB is toxic to CuFi-1 airway epithelia. Prior to treatment, media was removed from the basolateral side of epithelia and replaced with 500 µL of fresh USG media. Cultured epithelia were then treated with FC-72 vehicle, 2 and 50 μM AmB administered in perfluorocarbon (FC-72, Sigma) for 48 hours, 7 days, or 28 days. 48 hours prior to the end of each experiment time frame, basolateral media was changed again and […] of 10% Triton X-100 solution was added to the apical surface to elicit maximum release. On the day of the experiment, assay reagents were prepared according to kit instructions and 500 µL of USG media was added to three empty wells in a 24-well plate for background control. Culture inserts were removed from the wells and 250 µL of LDH Reaction Solution was added to each well. The plate was then gently shaken on an orbital shaker for 30 minutes at 37° C. Absorbance was read at 490 nm using a plate reader. % cytotoxicity was calculated as follows: […]

[7] = aerosolized / nebulized; cited from earlier work

Compound: C[C@@H]1[C@H](O)[C@@H](C)/C=C/C=C/C=C/C=C/C=C/C=C/C=C/[C@H](O[C@@H]2O[C@H](C)[C@@H](O)[C@H](N)[C@@H]2O)C[C@@H]2O[C@](O)(C[C@@H](O)C[C@@H](O)[C@H](O)CC[C@@H](O)C[C@@H](O)CC(=O)O[C@H]1C)C[C@H](O)[C@H]2C(=O)O [AmB, amphotericin B]
- ASL pH in non-CF epithelia [1]: No increase in ASL pH was observed
- ASL pH, apical addition ([2]; 9 donors, 2 μM, 48 h): caused an increase in ASL pH across a wide range of different genotypes; also recorded: increased ASL pH; also recorded: restores ASL pH
- ASL pH, basolateral addition of AmB ([2]; AmB 2 μM basolateral, 48 h): did not increase ASL pH
- average increase in ASL pH ([2]; apical AmB 2 μM): 0.2 pH units
- time for which the increase in ASL pH is sustained ([2]; apical AmB 2 μM): at least 48 hours
- ASL viscosity (τASL/τsaline) [3]: decreased ASL viscosity across a wide range of patient genotypes
- average magnitude of viscosity reduction [3]: ~1.5 units
- direct antibacterial activity against S. aureus [4]: insensitive to direct killing by AmB; also recorded: does not have antibacterial activity against S. aureus
- membrane integrity / transepithelial electrical resistance (Rt) [5]: did not disrupt membrane integrity; also recorded: no difference in transepithelial electrical resistance; also recorded: did not differ between treatment with vehicle or increasing doses of AmB
- cytotoxicity (LDH release, percent of total lysis by Triton X) [6]: did not cause increased cytotoxicity as compared to vehicle
- safety of delivery to the lungs [7]: safely delivered to the lungs in aerosolized form
